Data taken from patent US11795460B2, “Compositions and methods for TTR gene editing and treating ATTR amyloidosis” (Intellia Therapeutics, Inc., priority 2017, dated 2023).

How the values were obtained:
TTR [1] = experiment: TTR editing in HepG2 cells transfected with Spy Cas9 mRNA and dgRNAs (Table 6); type: cell-based, human; settings: HepG2 cells co-transfected with Spy Cas9 mRNA (SEQ ID NO:2) and dgRNAs
Summary of the method: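 Percent editing is the share of sequencing reads at the TTR target locus that carry insertions, deletions or substitutions, measured by Illumina amplicon sequencing aligned to hg38. Samples came from HepG2 cells lipofected first with 100 ng Cas9 mRNA and then with dual-guide RNA (25 nM crRNA/tracer), collected 24–72 h later.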

TTR [2] = experiment: TTR editing in HEK293_Cas9 cells transfected with dgRNAs (Table 4); type: cell-based, human; settings: HEK293_Cas9 cells (constitutively express Spy Cas9) transfected with dgRNAs
Summary of the method: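 Percent editing, taken from amplicon NGS as the fraction of all reads carrying insertions, deletions or substitutions, was measured 24, 48 or 72 h after delivery. Delivery used RNAiMAX lipoplexes of 25 nM each crRNA and trRNA into HEK293 cells stably expressing Spy Cas9.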

TTR [3] = experiment: TTR editing in primary human hepatocytes electroporated with Spy Cas9 protein loaded with dgRNAs (Table 7); type: cell-based; settings: dgRNA electroporated with Spy Cas9 protein (RNP)
Summary of the method: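 Editing efficiency is the fraction of NGS reads carrying insertions, deletions or substitutions at the TTR target, measured on MiSeq amplicons from DNA harvested 24, 48 or 72 h post-delivery. Cas9–dgRNA ribonucleoprotein was nucleofected (P3 buffer, EX-147) into primary human or cyno hepatocytes.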

TTR [4] = experiment: TTR editing in primary human hepatocytes transfected with Spy Cas9 protein (RNP) loaded with dgRNAs (Table 8); type: cell-based; settings: dgRNA transfected with Spy Cas9 protein (RNP)
Summary of the method: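 Primary human hepatocytes were lipofected (RNAiMAX) with RNP of Spy Cas9 (10 nM) plus pre-annealed crRNA (10 nM) and trRNA (10 nM) and harvested 24, 48 or 72 h later. Target-site amplicons were sequenced on Illumina MiSeq and aligned to hg38; percent editing = reads with indels or substitutions over total reads.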

Row | Sequence | Avg % Deletion (TTR [1]) [%] | Avg % Edit (TTR [1]) [%] | Avg % Insert (TTR [1]) [%] | Avg % Deletion (TTR [2]) [%] | Avg % Edit (TTR [2]) [%] | Avg % Insert (TTR [2]) [%] | Avg % Deletion (TTR [3]) [%] | Avg % Edit (TTR [3]) [%] | Avg % Insert (TTR [3]) [%] | Avg % Deletion (TTR [4]) [%] | Avg % Edit (TTR [4]) [%] | Avg % Insert (TTR [4]) [%]
1 | AAAGGCUGCUGAUGACACCU (tested as dual guide RNA, chemistry not given here) [CR003353] | 3.68 | 60.40 | 56.71 | 21.32 | 25.03 | 3.71 | 2.63 | 84.83 | 82.23 | 2.16 | 61.54 | 59.38
2 | AAAGUUCUAGAUGCUGUCCG (tested as dual guide RNA, chemistry not given here) [CR003346] | 0.05 | 0.13 | 0.07 | 15.30 | 48.33 | 33.03 | 14.83 | 35.67 | 20.83 | 1.84 | 4.11 | 2.27
3 | AAAUAGACACCAAAUCUUAC (tested as dual guide RNA, chemistry not given here) [CR003366] | 8.49 | 54.69 | 46.20 | 37.26 | 47.36 | 10.10 | 3.10 | 34.70 | 31.63 | 4.79 | 42.74 | 37.95
4 | AAGUGCCUUCCAGUAAGAUU (tested as dual guide RNA, chemistry not given here) [CR003368] | 3.22 | 51.55 | 48.34 | 36.61 | 40.35 | 3.73 | 0.80 | 28.47 | 27.63 | 1.00 | 34.83 | 33.83
5 | AAUAGGAGUAGGGGCUCAGC (tested as dual guide RNA, chemistry not given here) [CR003384] | 0.25 | 3.37 | 3.12 | 16.00 | 17.45 | 1.45 | 0.23 | 1.87 | 1.73 | 0.17 | 3.56 | 3.39
6 | ACACAAAUACCAGUCCAGCA (tested as dual guide RNA, chemistry not given here) [CR003339] | 55.84 | 68.21 | 12.37 | 6.98 | 56.37 | 49.39 | 34.07 | 43.00 | 8.93 | 36.21 | 45.06 | 8.85
7 | ACCUCUGCAUGCUCAUGGAA (tested as dual guide RNA, chemistry not given here) [CR003371] | 1.84 | 15.91 | 14.07 | 21.76 | 25.60 | 3.84 | 1.87 | 16.20 | 14.47 | 1.57 | 18.80 | 17.23
8 | ACGUGUCUUCUCUACACCCA (tested as dual guide RNA, chemistry not given here) [CR005302] | 2.29 | 33.21 | 30.93 |  |  |  | 1.00 | 61.10 | 60.10 | 0.97 | 48.29 | 47.32
9 | ACUGAGGAGGAAUUUGUAGA (tested as dual guide RNA, chemistry not given here) [CR003363] | 14.07 | 42.65 | 28.58 | 16.26 | 31.03 | 14.77 | 1.63 | 9.43 | 7.80 | 6.18 | 27.65 | 21.47
10 | AGACACCAAAUCUUACUGGA (tested as dual guide RNA, chemistry not given here) [CR003367] | 21.27 | 45.55 | 24.28 | 18.67 | 47.11 | 28.44 | 16.37 | 39.20 | 22.93 | 15.13 | 31.19 | 16.06
11 | AGCCUUUCUGAACACAUGCA (tested as dual guide RNA, chemistry not given here) [CR003351] | 25.57 | 57.54 | 31.98 | 21.24 | 49.67 | 28.42 | 20.97 | 51.77 | 30.83 | 16.36 | 40.28 | 23.92
12 | AGGCAGUCCUGCCAUCAAUG (tested as dual guide RNA, chemistry not given here) [CR003348] | 21.40 | 38.44 | 17.04 | 13.21 | 35.53 | 22.32 | 17.27 | 28.53 | 11.30 | 9.44 | 23.18 | 13.74
13 | GUCACAGAAACACUCACCGU (tested as dual guide RNA, chemistry not given here) [CR005301] | 3.65 | 37.04 | 33.39 |  |  |  | 1.60 | 25.37 | 24.00 | 1.84 | 31.37 | 29.53
14 | UGAAUCCAAGUGUCCUCUGA (tested as dual guide RNA, chemistry not given here) [CR005303] | 1.08 | 21.63 | 20.55 |  |  |  | 0.53 | 53.57 | 53.07 | 0.39 | 36.45 | 36.06
